Assay results from US20100331310A1, “BICYCLOAMINE DERIVATIVES” (priority 2008, published 2010).
Where a name gives a salt, the structure may show the parent alone.

Molecular target: T1, human Nav1.8 (Homo sapiens, UniProt Q9Y5Y9)
T1 construct: expressed in transfected cells
Assay: Membrane potential increase-inhibitory action on TTX-resistant Na channels in cells expressing human Nav1.8 gene (deltamethrin stimulation)
Format: cell-based
Protocol: A cell line expressing human Nav1.8 gene was used to evaluate the pharmacological effects of compounds of the invention.
1. A membrane potential-sensitive dye containing TTX (final concentration: 0.25 μM) was added to cells expressing human Nav1.8, prior to incubation at 37° C. for 30-60 minutes. 2. The test compound was added to the cells, and the mixture was stationed for 15-30 minutes at room temperature while shielded from light. 3. Deltamethrin (final concentration: 50 μM), a Nav1.8 channel stimulant, was added, and the change in fluorescence intensity due to increased membrane potential was measured.
The Nav1.8 channel inhibition of the test compound was determined by the following equation.

T1 sequence (Q9Y5Y9 whole entry): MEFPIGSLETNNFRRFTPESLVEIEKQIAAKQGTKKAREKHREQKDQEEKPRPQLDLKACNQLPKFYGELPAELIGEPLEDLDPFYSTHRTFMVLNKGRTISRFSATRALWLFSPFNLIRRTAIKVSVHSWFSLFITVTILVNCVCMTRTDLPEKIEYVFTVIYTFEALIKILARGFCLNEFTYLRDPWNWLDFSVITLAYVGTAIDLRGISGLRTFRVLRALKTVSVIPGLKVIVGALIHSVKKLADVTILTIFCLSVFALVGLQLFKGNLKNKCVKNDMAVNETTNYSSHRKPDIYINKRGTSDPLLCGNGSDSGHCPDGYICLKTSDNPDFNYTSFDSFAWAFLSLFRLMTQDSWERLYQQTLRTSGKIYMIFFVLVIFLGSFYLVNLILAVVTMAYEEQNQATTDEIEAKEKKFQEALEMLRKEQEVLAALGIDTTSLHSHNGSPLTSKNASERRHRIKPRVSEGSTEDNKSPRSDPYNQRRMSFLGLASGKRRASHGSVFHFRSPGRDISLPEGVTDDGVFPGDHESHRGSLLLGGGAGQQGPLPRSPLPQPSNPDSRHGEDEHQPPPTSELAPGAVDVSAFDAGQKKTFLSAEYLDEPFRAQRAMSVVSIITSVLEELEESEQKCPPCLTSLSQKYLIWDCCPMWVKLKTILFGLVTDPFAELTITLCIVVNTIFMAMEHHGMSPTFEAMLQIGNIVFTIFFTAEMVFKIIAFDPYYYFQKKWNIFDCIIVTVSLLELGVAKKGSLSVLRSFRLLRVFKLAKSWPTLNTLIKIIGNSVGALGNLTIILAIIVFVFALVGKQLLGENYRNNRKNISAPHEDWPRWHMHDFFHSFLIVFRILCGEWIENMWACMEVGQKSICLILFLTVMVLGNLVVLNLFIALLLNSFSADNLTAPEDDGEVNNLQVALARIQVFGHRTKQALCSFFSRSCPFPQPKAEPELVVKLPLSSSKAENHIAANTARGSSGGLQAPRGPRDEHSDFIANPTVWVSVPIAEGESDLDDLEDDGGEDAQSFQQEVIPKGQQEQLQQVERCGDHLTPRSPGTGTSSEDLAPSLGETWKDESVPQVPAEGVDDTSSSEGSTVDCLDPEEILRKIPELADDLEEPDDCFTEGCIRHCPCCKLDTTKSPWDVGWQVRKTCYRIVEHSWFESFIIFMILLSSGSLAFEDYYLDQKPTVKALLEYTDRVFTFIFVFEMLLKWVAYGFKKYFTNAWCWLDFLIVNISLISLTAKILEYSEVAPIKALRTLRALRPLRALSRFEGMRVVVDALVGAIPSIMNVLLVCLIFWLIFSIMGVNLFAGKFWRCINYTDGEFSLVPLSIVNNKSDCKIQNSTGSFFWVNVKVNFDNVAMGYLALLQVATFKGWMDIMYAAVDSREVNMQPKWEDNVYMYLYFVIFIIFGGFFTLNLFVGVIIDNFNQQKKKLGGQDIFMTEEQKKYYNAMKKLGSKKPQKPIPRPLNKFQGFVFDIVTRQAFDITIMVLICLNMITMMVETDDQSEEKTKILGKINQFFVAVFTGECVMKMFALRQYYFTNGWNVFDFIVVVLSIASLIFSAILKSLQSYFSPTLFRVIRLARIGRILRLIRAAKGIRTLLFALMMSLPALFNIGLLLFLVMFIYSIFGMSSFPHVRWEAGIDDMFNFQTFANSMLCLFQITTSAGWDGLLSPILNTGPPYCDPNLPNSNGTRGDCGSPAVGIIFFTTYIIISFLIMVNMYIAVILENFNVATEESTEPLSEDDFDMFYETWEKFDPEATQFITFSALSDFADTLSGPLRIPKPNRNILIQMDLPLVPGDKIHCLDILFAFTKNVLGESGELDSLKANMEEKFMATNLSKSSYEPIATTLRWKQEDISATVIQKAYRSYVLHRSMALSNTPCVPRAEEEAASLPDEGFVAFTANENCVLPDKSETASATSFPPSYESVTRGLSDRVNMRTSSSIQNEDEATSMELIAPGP

Row | Structure (SMILES) | IC50 [µM] | Nav1.8 channel inhibition (30 μM, reference for complete inhibition in the equation)
1 | O=c1nc2n(c(=O)n1C[C@H](F)CN1[C@@H]3CC[C@H]1C[C@@H](OCc1ccc(F)cc1)C3)CCC2 [Example 128, (Endo)-3-{(R)-2-fluoro-3-[3-(4-fluorobenzyloxy)-8-azabicyclo[3.2.1]oct-8-yl]propyl}-7,8-dihydro-6H-pyrrolo[1,2-a][1,3,5]triazine-2,4-dione oxalate] | 3.7 | –
2 | Cc1nn(C[C@H](O)CN2[C@@H]3CC[C@H]2C[C@@H](OCc2ccc(F)cc2)C3)c(=O)n1-c1cnn(C)c1 [Example 34, (Endo)-2-{(R)-3-[3-(4-fluorobenzyloxy)-8-azabicyclo[3.2.1]oct-8-yl]-2-hydroxypropyl}-5-methyl-4-(1-methyl-1H-pyrazol-4-yl)-2,4-dihydro[1,2,4]triazol-3-one] | 16 | –
3 | O=C(CN1[C@@H]2CC[C@H]1C[C@@H](OCc1ccccc1F)C2)Cn1nc2ccccn2c1=O [Example 158, (Endo)-2-{3-[3-(2-fluorobenzyloxy)-8-azabicyclo[3.2.1]oct-8-yl]-2-oxopropyl}-2H-[1,2,4]triazolo[4,3-a]pyridin-3-one] | 0.93 | –
4 | Cc1c(C)n(C)c(=O)n(CCCN2[C@@H]3CC[C@H]2C[C@@H](OCc2ccccc2F)C3)c1=O [Example 189, (Endo)-3-{3-[3-(2-fluorobenzyloxy)-8-azabicyclo[3.2.1]oct-8-yl]propyl}-1,5,6-trimethyl-1H-pyrimidine-2,4-dione oxalate] | 3.8 | –
5 | Cc1nn2c(=O)n(C[C@H](F)CN3[C@@H]4CC[C@H]3C[C@@H](OCc3cccc(F)c3)C4)c(=O)nc2n1C [Example 101, (Endo)-6-{(R)-2-fluoro-3-[3-(3-fluorobenzyloxy)-8-azabicyclo[3.2.1]oct-8-yl]propyl}-2,3-dimethyl-3H-[1,2,4]triazole[1,5-a][1,3,5]triazine-5,7-dione] | 2.7 | –
6 | Cn1c(-c2cocn2)nn(CC(O)CN2[C@@H]3CC[C@H]2C[C@@H](OCc2ccccc2CF)C3)c1=O (stereo partly drawn) [Example 55, (Endo)-2-{3-[3-(2-fluoromethylbenzyloxy)-8-azabicyclo[3.2.1]oct-8-yl]-2-hydroxy-propyl}-4-methyl-5-oxazol-4-yl-2,4-dihydro[1,2,4]triazol-3-one] | 12 | –
7 | Cc1nc(=O)n(C[C@H](F)CN2[C@@H]3CC[C@H]2C[C@@H](OCc2cccc(F)c2)C3)c(=O)n1C [Example 15, (Endo)-3-{(R)-2-fluoro-3-[3-(3-fluorobenzyloxy)-8-azabicyclo[3.2.1]oct-8-yl]propyl}-1,6-dimethyl-1H-[1,3,5]triazine-2,4-dione oxalate] | 2.4 | –
8 | Cc1nc2c(c(=O)n1CCN1[C@@H]3CC[C@H]1C[C@@H](OCc1ccccc1F)C3)CCCC2 [Example 180, (Endo)-3-{2-[3-(2-fluorobenzyloxy)-8-azabicyclo[3.2.1]oct-8-yl]ethyl}-2-methyl-5,6,7,8-tetrahydro-3H-quinazolin-4-one oxalate] | 4.8 | –
9 | Cc1nn(C[C@@H](F)CN2[C@@H]3CC[C@H]2C[C@@H](OCc2ccc(F)cc2)C3)c(=O)n1-c1ccn(C)n1 [Example 24, (Endo)-2-{(S)-2-fluoro-3-[3-(4-fluorobenzyloxy)-8-azabicyclo[3.2.1]oct-8-yl]propyl}-5-methyl-4-(1-methyl-1H-pyrazol-3-yl)-2,4-dihydro[1,2,4]triazol-3-one oxalate] | 3.7 | –
10 | Cc1nn2c(=O)n(C[C@H](F)CN3[C@@H]4CC[C@H]3C[C@@H](OCc3ccc(F)c(F)c3)C4)c(=O)nc2n1C [Example 102, (Endo)-6-{(R)-3-[3-(3,4-di-fluorobenzyloxy)-8-azabicyclo[3.2.1]oct-8-yl]-2-fluoropropyl}-2,3-dimethyl-3H-[1,2,4]triazole[1,5-a][1,3,5]triazine-5,7-dione] | 2.8 | –
11 | Cc1ccccc1OC[C@@H]1C[C@H]2CC[C@@H](C1)N2CCCCn1nc2ccccn2c1=O [Example 153, (Exo)-2-{4-[3-(2-methylphenoxymethyl)-8-azabicyclo[3.2.1]oct-8-yl]butyl}-2H-[1,2,4]triazolo[4,3-a]pyridin-3-one oxalate] | 3.7 | –
12 | Cc1nn(CC(O)CN2[C@@H]3CC[C@H]2C[C@@H](OCc2ccccc2F)C3)c(=O)n1-c1nccs1 (stereo partly drawn) [Example 48, (Endo)-2-{3-[3-(2-fluorobenzyloxy)-8-azabicyclo[3.2.1]oct-8-yl]-2-hydroxypropyl}-5-methyl-4-thiazol-2-yl-2,4-dihydro[1,2,4]triazol-3-one oxalate] | 0.2 | –
13 | O=c1n(CC[C@H](O)CN2[C@@H]3CC[C@H]2C[C@@H](OCc2ccccc2F)C3)nc2ccccn12 [Example 155, (Endo)-2-{(S)-4-[3-(2-fluorobenzyloxy)-8-azabicyclo[3.2.1]oct-8-yl]-3-hydroxybutyl}-2H-[1,2,4]triazolo[4,3-a]pyridin-3-one] | 1.3 | –
14 | CCn1cnn(C[C@@H](O)CN2[C@@H]3CC[C@H]2C[C@@H](OCc2c(C)cccc2F)C3)c1=O [Example 35, (Endo)-4-ethyl-2-{(S)-3-[3-(2-fluoro-6-methylbenzyloxy)-8-azabicyclo[3.2.1]oct-8-yl]-2-hydroxypropyl}-2,4-dihydro[1,2,4]triazol-3-one] | 14 | –
15 | Cn1c(=O)c2c(ncn2CCCN2[C@@H]3CC[C@H]2C[C@@H](OCc2ccccc2F)C3)n(C)c1=O [Example 182, (Endo)-7-{3-[3-(2-fluorobenzyloxy)-8-azabicyclo[3.2.1]oct-8-yl]propyl}-1,3-dimethyl-3,7-dihydro-purine-2,6-dione] | 6.7 | –
16 | CCn1c(C)nc(=O)n(CCCN2[C@@H]3CC[C@H]2C[C@@H](OCc2c(F)cccc2-c2ccccc2)C3)c1=O [Example 91, (Endo)-1-ethyl-3-{3-[3-(3-fluorobiphenyl-2-ylmethoxy)-8-azabicyclo[3.2.1]oct-8-yl]propyl}-6-methyl-1H-[1,3,5]triazine-2,4-dione oxalate] | 0.17 | –
17 | Cc1nn(C[C@H](F)CN2[C@@H]3CC[C@H]2C[C@@H](OCc2cccc(F)c2)C3)c(=O)n1-c1ccn(C)n1 [Example 23, (Endo)-2-{(R)-2-fluoro-3-[3-(3-fluorobenzyloxy)-8-azabicyclo[3.2.1]oct-8-yl]propyl}-5-methyl-4-(1-methyl-1H-pyrazol-3-yl)-2,4-dihydro[1,2,4]triazol-3-one oxalate] | 5.3 | –
18 | Cc1cccc(COC2CC3CCC(C2)N3CC(F)Cn2c(=O)nc(C)n(C)c2=O)c1 (stereo not drawn) [Example 21, (Endo)-3-{2-fluoro-3-[3-(3-methylbenzyloxy)-8-azabicyclo[3.2.1]oct-8-yl]-propyl}-1,6-dimethyl-1H-[1,3,5]triazine-2,4-dione oxalate] | 4 | –
19 | Cc1cccc(F)c1CO[C@H]1C[C@H]2CC[C@@H](C1)N2CCCn1c(=O)nc2n(c1=O)CCCCC2 [Example 136, (Endo)-3-{3-[3-(2-fluoro-6-methylbenzyloxy)-8-azabicyclo[3.2.1]oct-8-yl]propyl}-7,8,9,10-tetrahydro-6H-[1,3,5]triazino[1,2-a]azepine-2,4-dione oxalate] | 4.9 | –
20 | Cc1nn(C[C@H](F)CN2C3CCC2CC(OCc2cccs2)C3)c(=O)n1C (stereo partly drawn) [Example 7, (Endo)-2-{(R)-2-fluoro-3-[3-(thiophen-2-ylmethoxy)-8-azabicyclo[3.2.1]oct-8-yl]propyl}-4,5-dimethyl-2,4-dihydro[1,2,4]triazol-3-one] | 4.3 | –
21 | Cn1c(-c2ccccc2)nn(CCCN2[C@@H]3CC[C@H]2C[C@@H](OCc2ccccc2F)C3)c1=O [Example 57, (Endo)-2-{3-[3-(2-fluorobenzyloxy)-8-azabicyclo[3.2.1]oct-8-yl]propyl}-4-methyl-5-phenyl-2,4-dihydro[1,2,4]triazol-3-one oxalate] | 0.08 | –
22 | O=c1n(CC(O)CN2[C@@H]3CC[C@H]2C[C@@H](OCc2ccccc2F)C3)nnn1-c1ccccc1 (stereo partly drawn) [Example 190, (Endo)-1-{3-[3-(2-fluorobenzyloxy)-8-azabicyclo[3.2.1]oct-8-yl]-2-hydroxypropyl}-4-phenyl-1,4-dihydro-tetrazol-5-one] | 0.03 | –
23 | Cc1nc(=O)n(C[C@@H](F)CN2[C@@H]3CC[C@H]2C[C@@H](OCc2cccc(F)c2)C3)c(=O)n1C [Example 13, (Endo)-3-{(S)-2-fluoro-3-[3-(3-fluorobenzyloxy)-8-azabicyclo[3.2.1]oct-8-yl]propyl}-1,6-dimethyl-1H-[1,3,5]triazine-2,4-dione oxalate] | 10 | –
24 | CCn1c(CCCN2[C@@H]3CC[C@H]2C[C@@H](OCc2ccccc2F)C3)nn(C)c1=O [Example 169, (Endo)-4-ethyl-5-{3-[3-(2-fluorobenzyloxy)-8-azabicyclo[3.2.1]oct-8-yl]propyl}-2-methyl-2,4-dihydro[1,2,4]triazol-3-one] | 12 | –
25 | CCc1ccccc1COC1CC2CCC(C1)N2C[C@H](O)Cn1nc(C)n(CC)c1=O (stereo partly drawn) [Example 31, (Endo)-4-ethyl-2-{(S)-3-[3-(2-ethylbenzyloxy)-8-azabicyclo[3.2.1]oct-8-yl]-2-hydroxypropyl}-5-methyl-2,4-dihydro[1,2,4]triazol-3-one] | 1 | –
26 | CNCCCN1c2ccccc2CCc2ccccc21 [desipramine, reference compound] | – | completely inhibits
